# Laboratory results as given in patent publication US8492349B2, “Analgesia with minimal tolerance and dependence by a mu opioid receptor agonist that also binds filamin A” (Pain Therapeutics, Inc., priority 2007, dated 2013).
# Like-named read-outs stand apart in the source and are kept apart here.
# Columns and labels:
# MOR = assay: Stimulation of MOR screen; format: biochemical
# Text: In that Table, the log P value is the logarithm of a compound's partition coefficient between n-octanol and water [log(coctanol/cwater)], and is a well established measure of the compound's […]. “C Log P” shown in the Table is a calculated Log P value that is obtained using a program copyrighted (1988-2008) by Pomona College and BioByte, Inc. of Claremont, Calif.
# [1] = test system: other Go-coupled receptors; assay: Stimulation of other Go-coupled receptors; format: biochemical; conditions: 0.1 μM screen
# FLNA = FLNA (Homo sapiens, UniProt P21333); assay: FLNA binding affinity screen
# Chain of FLNA (P21333 whole entry): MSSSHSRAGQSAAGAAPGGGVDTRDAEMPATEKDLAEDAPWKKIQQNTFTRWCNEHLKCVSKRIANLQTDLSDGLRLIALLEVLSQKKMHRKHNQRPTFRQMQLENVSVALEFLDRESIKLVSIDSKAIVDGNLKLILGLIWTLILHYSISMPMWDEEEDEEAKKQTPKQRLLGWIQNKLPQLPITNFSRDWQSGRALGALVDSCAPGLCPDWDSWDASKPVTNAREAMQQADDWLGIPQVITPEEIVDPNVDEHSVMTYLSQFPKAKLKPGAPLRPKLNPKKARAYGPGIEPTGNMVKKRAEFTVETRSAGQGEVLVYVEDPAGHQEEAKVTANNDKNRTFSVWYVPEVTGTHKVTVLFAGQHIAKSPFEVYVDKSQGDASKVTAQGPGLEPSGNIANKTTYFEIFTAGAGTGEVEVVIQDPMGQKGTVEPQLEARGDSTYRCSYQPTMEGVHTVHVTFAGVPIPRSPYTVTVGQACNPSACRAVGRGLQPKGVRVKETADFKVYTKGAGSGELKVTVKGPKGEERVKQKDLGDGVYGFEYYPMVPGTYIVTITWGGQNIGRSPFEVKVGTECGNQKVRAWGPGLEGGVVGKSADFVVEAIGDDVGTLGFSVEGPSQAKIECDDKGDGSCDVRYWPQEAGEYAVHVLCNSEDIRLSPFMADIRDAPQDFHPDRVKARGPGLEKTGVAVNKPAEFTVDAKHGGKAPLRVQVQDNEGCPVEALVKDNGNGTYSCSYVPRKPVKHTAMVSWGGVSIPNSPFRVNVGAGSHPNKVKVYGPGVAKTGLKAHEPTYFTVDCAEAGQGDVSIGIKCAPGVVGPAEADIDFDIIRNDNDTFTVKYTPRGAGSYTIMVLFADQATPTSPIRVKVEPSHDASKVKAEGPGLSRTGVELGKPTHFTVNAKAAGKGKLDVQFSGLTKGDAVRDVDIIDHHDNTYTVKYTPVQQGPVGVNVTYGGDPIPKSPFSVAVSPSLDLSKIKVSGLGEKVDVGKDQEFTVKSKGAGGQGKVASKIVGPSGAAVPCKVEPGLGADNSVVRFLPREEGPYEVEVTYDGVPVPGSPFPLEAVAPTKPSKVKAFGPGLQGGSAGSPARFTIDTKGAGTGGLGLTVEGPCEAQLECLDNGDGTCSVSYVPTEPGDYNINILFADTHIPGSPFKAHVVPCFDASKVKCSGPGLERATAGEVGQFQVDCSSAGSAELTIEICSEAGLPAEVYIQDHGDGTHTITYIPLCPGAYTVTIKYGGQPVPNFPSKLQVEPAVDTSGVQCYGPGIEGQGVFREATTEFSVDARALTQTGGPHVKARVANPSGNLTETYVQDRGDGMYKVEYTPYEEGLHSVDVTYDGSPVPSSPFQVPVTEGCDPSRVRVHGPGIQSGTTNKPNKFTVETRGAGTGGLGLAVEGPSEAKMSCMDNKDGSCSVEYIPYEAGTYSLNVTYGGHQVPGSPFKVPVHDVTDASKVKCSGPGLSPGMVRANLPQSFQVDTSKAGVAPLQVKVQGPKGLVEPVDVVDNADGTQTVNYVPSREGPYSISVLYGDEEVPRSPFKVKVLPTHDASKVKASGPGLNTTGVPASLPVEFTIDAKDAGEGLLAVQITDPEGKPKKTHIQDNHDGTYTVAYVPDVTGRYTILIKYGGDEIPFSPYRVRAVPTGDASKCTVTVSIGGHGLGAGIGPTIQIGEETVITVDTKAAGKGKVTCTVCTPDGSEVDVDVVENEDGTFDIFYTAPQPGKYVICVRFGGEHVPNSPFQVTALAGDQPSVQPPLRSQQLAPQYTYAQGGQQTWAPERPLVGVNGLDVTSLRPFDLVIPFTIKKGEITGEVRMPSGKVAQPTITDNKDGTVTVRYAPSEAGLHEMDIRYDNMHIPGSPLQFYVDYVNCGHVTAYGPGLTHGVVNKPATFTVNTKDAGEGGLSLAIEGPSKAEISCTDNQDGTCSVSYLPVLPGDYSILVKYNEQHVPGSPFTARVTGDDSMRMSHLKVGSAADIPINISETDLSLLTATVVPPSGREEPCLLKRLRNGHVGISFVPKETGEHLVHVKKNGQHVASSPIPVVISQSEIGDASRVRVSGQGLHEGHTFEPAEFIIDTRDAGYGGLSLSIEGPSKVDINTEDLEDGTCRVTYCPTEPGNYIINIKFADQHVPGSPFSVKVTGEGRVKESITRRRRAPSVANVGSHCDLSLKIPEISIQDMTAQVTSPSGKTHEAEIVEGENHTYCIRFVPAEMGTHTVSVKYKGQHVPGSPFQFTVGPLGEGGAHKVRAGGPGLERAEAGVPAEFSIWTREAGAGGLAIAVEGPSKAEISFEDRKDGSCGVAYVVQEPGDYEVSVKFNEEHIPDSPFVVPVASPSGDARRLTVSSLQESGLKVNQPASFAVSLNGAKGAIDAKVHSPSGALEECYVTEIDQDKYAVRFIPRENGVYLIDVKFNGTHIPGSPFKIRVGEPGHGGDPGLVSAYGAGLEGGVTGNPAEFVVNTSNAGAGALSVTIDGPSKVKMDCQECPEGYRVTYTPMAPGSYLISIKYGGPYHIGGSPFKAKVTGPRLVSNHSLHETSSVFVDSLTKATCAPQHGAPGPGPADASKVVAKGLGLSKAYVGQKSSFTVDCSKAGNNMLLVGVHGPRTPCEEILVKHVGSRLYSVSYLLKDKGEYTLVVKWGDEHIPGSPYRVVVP
# purified human FLNA = biological target: T1, purified human FLNA (Homo sapiens, UniProt P21333); assay: [3H]NLX binding to immunopurified FLNA; conditions: for attenuation of [3H]NLX binding to purified human FLNA: 10 μM peptide, 500 pM [3H]NLX
# T1 construct: made in house
# T1 sequence (P21333 whole entry): as above
# Protocol: (§1) To determine the NLX binding site on FLNA, various overlapping peptides encoding the c-terminal section of FLNA were used to compete for [^3H]NLX binding to FLNA using either A7 cell membranes or purified FLNA from A7 or SK-N-MC cells. Peptides were prepared by Sigma-Genosys (The Woodlands, Tex.). The reaction mixture consisted of 100 μg A7 membranes or 2 μg purified FLNA, 500 pM [^3H]NLX, and 10 μM of either FLNA2550-2560, FLNA2556-2565, FLNA2561-2570, FLNA2566-2575 or FLNA2576-2581 in 500 μl binding medium. The reaction was carried out at 37° C. for 30 minutes and terminated by rapid filtration through GF/B membranes under vacuum. The filters were washed twice with 5 ml ice-cold binding medium, and [^3H]NLX retained on the filters was measured by liquid, scintillation spectrometry.
# pS133-CREB = assay: Acute morphine-induced CREB S133 phosphorylation in organotypic striatal slice cultures; format: cell-based, rat; conditions: for pS133CREB detection, treatment alone: without morphine; for pS133CREB level in striatal tissue: 100 μM
# Protocol: CREB in the solubilized cytosol and nucleus was immunoprecipitated with an anti-CREB antibody (Santa Cruz) and the level of pS^133-CREB was then determined by Western blotting using a specific antibody directed against pS^133-CREB (Santa Cruz).
# MOR-Gs coupling [2] = assay: Acute morphine-induced MOR Go-to-Gs coupling switch in organotypic striatal slice cultures; format: cell-based, rat; conditions: for effect on acute morphine-induced coupling switch by MOR: pre-treatment 10 μM peptide
# Protocol: Tissues were harvested 5, 15 or 60 minutes after the drug exposure by centrifugation. For determination of MOR-G protein coupling, slices were homogenated to generate synaptic membranes and cytosolic fractions. Synaptic membranes (400 μg) were then solubilized with 0.5% digitonin/0.2% sodium cholate/0.5% NP-40 in 250 μl of immunoprecipitation buffer (25 mM HEPES, pH 7.5; 200 mM NaCl, 1 mM EDTA, 50 μg/ml leupeptin, 10 μg/ml aprotinin, 2 μg/ml soybean trypsin inhibitor, 0.04 mM PMSF and mixture of protein phosphatase inhibitors). Following centrifugation, striatal membrane lysates were immunoprecipitated with immobilized anti-Gαs/olf or -Gαo (Santa Cruz) conjugated with immobilized protein A-agarose beads (Pierce-Endogen). The level of MOR in anti-Gαs/olf or -Gαo immunoprecipitates was determined by Western blotting using specific anti-MOR antibodies.
# [3] = cited from earlier work
# [4] = biological target: T2, FLNA in A7 cell membranes (Homo sapiens, UniProt P21333); assay: [3H]NLX binding to membranes from FLNA-expressing A7 cells (competition); conditions: for displacement of [3H]NLX binding to A7 membranes: FIG. 3a; for attenuation of [3H]NLX binding to A7 cell membranes: 10 μM peptide, 500 pM [3H]NLX
# T2 construct: expressed in transfected cells; host or cells: A7, a subclone of human melanoma M2, stably transfected with human FLNA cDNA; membranes
# T2 sequence (P21333 whole entry): as above
# Protocol: To confirm FLNA as the high-affinity target of NLX, [^3H]NLX binding to the human melanoma cell line M2 and its subclone A7 was assessed. The M2 subclone lacks FLNA and MOR and its subclone A7 is stably transfected with human FLNA cDNA (obtained from Drs. Stossel and Ohta at Harvard Medical School).
# Membranes prepared from A7 cells (50 μg) were incubated in binding medium consisting of 50 mM Tris HCl, pH 7.5; 100 mM NaCl; and protease and protein phosphatase inhibitors with 500 pM [^3H]NLX for 30 minutes at 37° C. Total incubation volume was 500 μl. Non-specific binding was defined by 1 μM NTX. […] Reactions were terminated by, rapid filtration through GF/B membranes under vacuum. The filters were washed twice with 5 ml ice-cold binding medium, and [^3H]NLX retained on the filters was measured by liquid scintillation spectrometry.
# as §1
# To determine the essential amino acid residue(s) within the NLX-interacting pentapeptide, four additional pentapeptides, each with one amino acid residue replaced by alanine, were used along with the correct FLNA2561-2565 pentapeptide to compete for [^3H]NLX binding to FLNA using 100 μg A7 cell membranes. Peptides were generated by Sigma-Genosys. The reaction mixture consisted of 500 pM [^3H]NLX, 100 μg A7 membranes, and 10 μM pentapeptide [AAKGL, (SEQ ID NO:13); VAKGL (SEQ ID NO:14); VAAGL (SEQ ID NO:12); VAKAL (SEQ ID NO:15) or VAKGA (SEQ ID NO:16)] in 500 μl binding medium. The reaction was conducted at 37° C. for 30 minutes and terminated by rapid filtration through GF/B membranes under reduced pressure. The filters were washed twice with 5 ml ice-cold binding medium, and [^3H]NLX retained on the filters was measured by liquid scintillation spectrometry.
# MOR-Gs coupling [5] = assay: Chronic morphine-induced MOR Go-to-Gs coupling switch in organotypic striatal slice cultures; format: cell-based, rat; conditions: for effect on NLX-mediated prevention of cellular indices of morphine tolerance (Go-to-Gs switch and cAMP): 10 μM peptide added to morphine plus 10 pM NLX
# Protocol: For determination of MOR-G protein coupling, slices were homogenated to generate synaptic membranes. […] Following centrifugation, striatal membrane lysates were immunoprecipitated with immobilized anti-Gαs/olf or -Gαo conjugated with immobilized protein G-agarose beads. The level of MOR in anti-Gαs/olf or -Gαo immunoprecipitates was determined by Western blotting using specific anti-MOR antibodies.
# [6] = co-treatment 100 pM with 100 μM morphine
# [7] = pre-treatment 10 μM peptide, 100 μM morphine
# Protocol for cAMP accumulation: Tissues were homogenized by sonication and protein precipitated with 1M TCA. The supernatant obtained after centrifugation was neutralized using 50 mM Tris, pH 9.0. The level of cAMP in the brain lysate was measured by a cAMP assay kit (PerkinElmer Life Science, Boston) according to manufacturer's instructions.
compound,measurement,setting,value
COC(OC)C12CCC(=O)C=C1CCC1C3CCC(OC(C)=O)C3(C)CCC12 (stereo not shown) [Compound 1],Stimulation of MOR at (at 0.1 μM),MOR,79%
same,Stimulation of other Go-coupled receptors,[1],19%
C[C@@H]1CCC2[C@]3(C)COC(C)(C)OC3CC[C@@]2(C)C12CCC(CO)(CCO)O2 (stereo partly shown) [Compound 2],Stimulation of MOR at (at 0.1 μM),MOR,67%
same,Stimulation of other Go-coupled receptors,[1],11%
COc1cc(CCC(O)CC2c3c(cc4c(c3OC)OCO4)CCN2C)ccc1O (stereo not shown) [Compound 3],Stimulation of MOR at (at 0.1 μM),MOR,78%
same,Stimulation of other Go-coupled receptors,[1],16%
COc1ccc(S(=O)(=O)N2CCC3(CC2)OCCN3S(=O)(=O)c2ccc(OC)cc2)cc1 [Compound 5],Stimulation of MOR at (at 0.1 μM),MOR,91%
same,Stimulation of other Go-coupled receptors,[1],11%
same,Kd,FLNA; read-out: FLNA affinity,8.65 pM
COc1ccccc1CC(=O)CC1c2c(cc3c(c2OC)OCO3)CC[N+]1(C)C (stereo not shown) [Compound 6],Stimulation of MOR at (at 0.1 μM),MOR,91%
same,Stimulation of other Go-coupled receptors,[1],23%
COc1ccc(C(=O)CC2c3c(cc4c(c3OC)OCO4)CC[N+]2(C)C)c(OC)c1 (stereo not shown) [Compound 7],Stimulation of MOR at (at 0.1 μM),MOR,64%
same,Stimulation of other Go-coupled receptors,[1],21%
same,Kd,FLNA; read-out: FLNA affinity,2.86 pM
C[C@@H](NC(=O)[C@@H](N)Cc1ccc(O)cc1)C(=O)NCC(=O)N(C)[C@@H](Cc1ccccc1)C(=O)NCCO [DAMGO],Stimulation of MOR at (at 0.1 μM),MOR,92%
same,Stimulation of other Go-coupled receptors,[1],6%
"C=CCN1CC[C@]23c4c5ccc(O)c4O[C@H]2C(=O)CC[C@@]3(O)[C@H]1C5 [Naloxone, naloxone]",Kd,purified human FLNA; read-out: binding affinity for immunopurified FLNA,~43 pM
same,effect on acute morphine-induced pS133CREB signal,pS133-CREB; [6],virtually abolished
same,"pS133CREB detection, treatment alone",pS133-CREB,did not result in pS^133CREB detection
same,effect on chronic morphine-induced attenuation of the DAMGO-induced reduction in cAMP production,cAMP accumulation; 10 pM with 100 μM morphine,blocked
"O=C1CC[C@@]2(O)[C@H]3Cc4ccc(O)c5c4[C@@]2(CCN3CC2CC2)[C@H]1O5 [Naltrexone, naltrexone]",effect on acute morphine-induced G protein coupling switch by MOR,MOR-Gs coupling [2]; [6],prevented
same,effect on MOR coupling alone,MOR-Gs coupling [2]; without morphine,had no effect
same,effect on acute morphine-induced pS133CREB signal,pS133-CREB; [6],virtually abolished
same,"pS133CREB detection, treatment alone",pS133-CREB,did not result in pS^133CREB detection
same,effect on acute rewarding effects of oxycodone,[3]; 3 ng/kg,without effect
same,effect on acute rewarding effects of oxycodone,"[3]; 0.03, 0.3 and 30 ng/kg",blocked
same,Kd,FLNA,3.9 pM
same,displacement of [3H]NLX binding to A7 membranes,[4],robustly displaced
same,IC50,"[4]; competition curve, 16 concentrations 0.2 pM to 1 μM, FIG. 4, read-out: IC50 for inhibition of [3H]NLX binding to membranes from FLNA-expressing A7 cells",43 pM
CN1CC[C@]23c4c5ccc(O)c4O[C@H]2[C@@H](O)C=C[C@H]3[C@H]1C5 [morphine],Go-to-Gs coupling switch by MOR after chronic treatment,"MOR-Gs coupling [5]; 100 μM, 1 hour twice daily for 7 days",induced a robust Go-to-Gs coupling switch
same,pS133CREB level in striatal tissue,pS133-CREB; after 5 and 15 minutes of exposure,robust level
same,pS133CREB level in striatal tissue,pS133-CREB; after 1 hour of exposure,only a residual level
same,effect on DAMGO-mediated reduction in cAMP accumulation,cAMP accumulation; chronic 100 μM treatment,attenuated
same,displacement of [3H]NLX binding to A7 membranes,[4],not
"FLNA2550-2560: overlapping peptide encoding the c-terminal section of FLNA (PGPGPADASKV; UniProt P21333 2550-2560, looked up, fragment)",effect on NLX-mediated prevention of cellular indices of morphine tolerance (Go-to-Gs switch and cAMP),MOR-Gs coupling [5],not
"FLNA2556-2565: overlapping peptide encoding the c-terminal section of FLNA (DASKVVAKGL; UniProt P21333 2556-2565, looked up, fragment)",attenuation of [3H]NLX binding to purified human FLNA,purified human FLNA,markedly attenuated
same,attenuation of [3H]NLX binding to A7 cell membranes,[4],markedly attenuated
"FLNA2561-2570: overlapping peptide encoding the c-terminal section of FLNA (VAKGLGLSKA; UniProt P21333 2561-2570, looked up, fragment)",attenuation of [3H]NLX binding to purified human FLNA,purified human FLNA,markedly attenuated
same,effect on NLX-mediated prevention of cellular indices of morphine tolerance (Go-to-Gs switch and cAMP),MOR-Gs coupling [5],abolished
same,attenuation of [3H]NLX binding to A7 cell membranes,[4],markedly attenuated
"FLNA2566-2575: overlapping peptide encoding the c-terminal section of FLNA (GLSKAYVGQK; UniProt P21333 2566-2575, looked up, fragment)",effect on NLX-mediated prevention of cellular indices of morphine tolerance (Go-to-Gs switch and cAMP),MOR-Gs coupling [5],not
"VAAGL (SEQ ID NO:12) [control peptide, FLNA2561-2565 withone mid-point alanine substitution]",Go coupling at 15 minutes,"MOR-Gs coupling [2]; 10 μM peptide, 100 μM morphine, 15 minutes",mildly preserved
same,effect on acute morphine-induced coupling switch by MOR,MOR-Gs coupling [2]; 100 μM morphine,did not prevent
same,effect on acute morphine-induced pS133CREB signal,pS133-CREB; [7],did not significantly diminish
VAKGL (SEQ ID NO:14) [decoy pentapeptide],effect on acute morphine-induced coupling switch by MOR,MOR-Gs coupling [2]; 100 μM morphine,completely prevented
same,effect on acute morphine-induced pS133CREB signal,pS133-CREB; [7],virtually abolished
